ChEMBL document CHEMBL1158009, “Paclitaxel analogues from Taxus x media cv. Hicksii” (1999)

Experiments:
[1] = test system: MCF7; assay: Cytotoxicity against human MCF7 cells assessed as ratio of ED50 for drug to ED50 for paclitaxel; assay type: functional
[2] = test system: Tubulin; assay: Inhibition of microtubule assembly = assessed as ratio of ED50 for drug to ED50 for paclitaxel
[3] = test system: MCF7R; assay: Cytotoxicity against human MCF7R cells assessed as ratio of ED50 for drug to ED50 for paclitaxel; assay type: functional

SMILES	Ratio ED50 [1]	Ratio ED50 [2]	Ratio ED50 [3]
C/C=C(\C)C(=O)O[C@H]1[C@@H]2[C@]3(OC(C)=O)CO[C@@H]3C[C@H](O)[C@@]2(C)C(=O)[C@H](OC(C)=O)C2=C(C)[C@@H](OC(=O)[C@H](O)[C@H](NC(=O)c3ccccc3)c3ccccc3)C[C@]1(O)C2(C)C [ISOCEPHALOMANNINE]	12	1.1	
CC(=O)O[C@H]1C(=O)[C@@]2(C)[C@H]([C@H](OC(=O)c3ccccc3)[C@]3(O)C[C@H](OC(=O)[C@H](O)[C@H](NC(=O)/C=C/c4ccccc4)c4ccccc4)C(C)=C1C3(C)C)[C@]1(OC(C)=O)CO[C@@H]1C[C@@H]2O	1.3	1.2	1.2
CCC(C)C(=O)N[C@H](c1ccccc1)[C@@H](O)C(=O)O[C@H]1C[C@@]2(O)[C@@H](OC(=O)c3ccccc3)[C@@H]3[C@]4(OC(C)=O)CO[C@@H]4C[C@H](O)[C@@]3(C)C(=O)[C@H](OC(C)=O)C(=C1C)C2(C)C (some centres not stated)	>10	6.7	
